Measured values published in PubChem BioAssay AID1259407 (Chemical Carcinogenesis Research Information System (CCRIS), 2018).
Activity calls are given as the source filed them. No rule for the calls is given here.

Test system: CCRIS mutagenicity, Ames/micronucleus/aberration tests
Assay: CCRIS mutagenicity studies
[1] = Test System: AMES SALMONELLA TYPHIMURIUM, Strain/Indicator: TA98, Metabolic Activation: NONE, Method: PREINCUBATION
[2] = Test System: AMES SALMONELLA TYPHIMURIUM, Strain/Indicator: TA100, Metabolic Activation: NONE, Method: PREINCUBATION
[3] = Test System: AMES SALMONELLA TYPHIMURIUM, Strain/Indicator: TA1535, Metabolic Activation: NONE, Method: PREINCUBATION

Measured: mutagenic call

CCCCC(CC)COC(=O)c1ccc(C(=O)OCC(CC)CCCC)c(C(=O)OCC(CC)CCCC)c1 (centres undefined)
inactive: Test System: AMES SALMONELLA TYPHIMURIUM, Strain/Indicator: TA97, Metabolic Activation: HAMSTER, LIVER, S-9, AROCLOR 1254 (10 OR 30%), Method: PREINCUBATION inactive; negative | Test System: AMES SALMONELLA TYPHIMURIUM, Strain/Indicator: TA97, Metabolic Activation: NONE, Method: PREINCUBATION inactive; negative | Test System: AMES SALMONELLA TYPHIMURIUM, Strain/Indicator: TA97, Metabolic Activation: RAT, LIVER, S-9, AROCLOR 1254 (10 OR 30%), Method: PREINCUBATION inactive; negative | Test System: AMES SALMONELLA TYPHIMURIUM, Strain/Indicator: TA98, Metabolic Activation: HAMSTER, LIVER, S-9, AROCLOR 1254 (10 OR 30%), Method: PREINCUBATION inactive; negative | [1] inactive; negative | Test System: AMES SALMONELLA TYPHIMURIUM, Strain/Indicator: TA98, Metabolic Activation: RAT, LIVER, S-9, AROCLOR 1254 (10 OR 30%), Method: PREINCUBATION inactive; negative | Test System: AMES SALMONELLA TYPHIMURIUM, Strain/Indicator: TA100, Metabolic Activation: HAMSTER, LIVER, S-9, AROCLOR 1254 (10 OR 30%), Method: PREINCUBATION inactive; negative | [2] inactive; negative | Test System: AMES SALMONELLA TYPHIMURIUM, Strain/Indicator: TA100, Metabolic Activation: RAT, LIVER, S-9, AROCLOR 1254 (10 OR 30%), Method: PREINCUBATION inactive; negative | Test System: AMES SALMONELLA TYPHIMURIUM, Strain/Indicator: TA1535, Metabolic Activation: HAMSTER, LIVER, S-9, AROCLOR 1254 (10 OR 30%), Method: PREINCUBATION inactive; negative | [3] inactive; negative | Test System: AMES SALMONELLA TYPHIMURIUM, Strain/Indicator: TA1535, Metabolic Activation: RAT, LIVER, S-9, AROCLOR 1254 (10 OR 30%), Method: PREINCUBATION inactive; negative

CCCCC(=O)N=c1sn(C(=O)CCCC)c2ccc([N+](=O)[O-])cc12
active: Test System: AMES SALMONELLA TYPHIMURIUM, Strain/Indicator: TA100, Metabolic Activation: S-9, Method: STANDARD PLATE active; positive

C=C(C#N)C(=O)OCC(C)C
inactive: Test System: AMES SALMONELLA TYPHIMURIUM, Strain/Indicator: TA100, Metabolic Activation: NONE, Method: STANDARD PLATE inactive; negative | Test System: AMES SALMONELLA TYPHIMURIUM, Strain/Indicator: TA100, Metabolic Activation: RAT, LIVER, S-9, AROCLOR 1254, Method: STANDARD PLATE inactive; negative

F[B-](F)(F)F
inactive: [1] inactive; negative | Test System: AMES SALMONELLA TYPHIMURIUM, Strain/Indicator: TA98, Metabolic Activation: RAT, LIVER, S-9, KC 500, Method: PREINCUBATION inactive; negative | [2] inactive; negative | Test System: AMES SALMONELLA TYPHIMURIUM, Strain/Indicator: TA100, Metabolic Activation: RAT, LIVER, S-9, KC 500, Method: PREINCUBATION inactive; negative | [3] inactive; negative | Test System: AMES SALMONELLA TYPHIMURIUM, Strain/Indicator: TA1535, Metabolic Activation: RAT, LIVER, S-9, KC 500, Method: PREINCUBATION inactive; negative | Test System: AMES SALMONELLA TYPHIMURIUM, Strain/Indicator: TA1537, Metabolic Activation: NONE, Method: PREINCUBATION inactive; negative | Test System: AMES SALMONELLA TYPHIMURIUM, Strain/Indicator: TA1537, Metabolic Activation: RAT, LIVER, S-9, KC 500, Method: PREINCUBATION inactive; negative | Test System: AMES SALMONELLA TYPHIMURIUM, Strain/Indicator: TA1538, Metabolic Activation: NONE, Method: PREINCUBATION inactive; negative | Test System: AMES SALMONELLA TYPHIMURIUM, Strain/Indicator: TA1538, Metabolic Activation: RAT, LIVER, S-9, KC 500, Method: PREINCUBATION inactive; negative | Test System: E. COLI, Strain/Indicator: WP2 UVRA, Metabolic Activation: NONE, Method: PREINCUBATION inactive; negative | Test System: E. COLI, Strain/Indicator: WP2 UVRA, Metabolic Activation: RAT, LIVER, S-9, KC 500, Method: PREINCUBATION inactive; negative

O=[N+]([O-])c1ccc(Cl)c(F)c1
inactive: End Point: IN VITRO CHROMOSOMAL ABERRATIONS, Test System: HUMAN PERIPHERAL LYMPHOCYTES, Metabolic Activation: NONE inactive; negative

CCOC(=O)N(N=O)C(CCC=O)c1cccnc1 (centres undefined)
active: [2] active; positive
